Reference: ChEMBL document CHEMBL4265900, “Discovery of the bifunctional modulator of angiotensin II type 1 receptor (AT1R) and PPARγ derived from the AT1R antagonist, Fimasartan” (Bioorg Med Chem Lett, 2018)
The source made the active and inactive calls. The rule behind the calls is not given here.

Key:
[1] = target: T1, Type-1 angiotensin II receptor (Homo sapiens, UniProt P30556); assay: Antagonist activity at type-1 angiotensin 2 receptor (unknown origin) by calcium mobilizing assay; assay type: functional
T1 sequence (P30556 whole entry): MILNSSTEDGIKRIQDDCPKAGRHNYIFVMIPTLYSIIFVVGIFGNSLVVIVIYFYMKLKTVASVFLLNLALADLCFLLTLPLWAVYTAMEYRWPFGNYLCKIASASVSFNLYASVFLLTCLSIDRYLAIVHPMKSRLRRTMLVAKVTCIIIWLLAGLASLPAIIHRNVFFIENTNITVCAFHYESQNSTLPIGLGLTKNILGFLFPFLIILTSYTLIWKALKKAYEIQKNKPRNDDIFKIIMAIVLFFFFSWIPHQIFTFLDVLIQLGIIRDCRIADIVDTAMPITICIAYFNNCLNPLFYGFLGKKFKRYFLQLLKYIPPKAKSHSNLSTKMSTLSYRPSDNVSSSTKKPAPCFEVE

[2] = target: T2, Peroxisome proliferator-activated receptor gamma (Homo sapiens) (UniProt P37231); assay: Agonist activity at PPARgamma (unknown origin) at 1 uM relative to telmisartan
T2 sequence (whole entry): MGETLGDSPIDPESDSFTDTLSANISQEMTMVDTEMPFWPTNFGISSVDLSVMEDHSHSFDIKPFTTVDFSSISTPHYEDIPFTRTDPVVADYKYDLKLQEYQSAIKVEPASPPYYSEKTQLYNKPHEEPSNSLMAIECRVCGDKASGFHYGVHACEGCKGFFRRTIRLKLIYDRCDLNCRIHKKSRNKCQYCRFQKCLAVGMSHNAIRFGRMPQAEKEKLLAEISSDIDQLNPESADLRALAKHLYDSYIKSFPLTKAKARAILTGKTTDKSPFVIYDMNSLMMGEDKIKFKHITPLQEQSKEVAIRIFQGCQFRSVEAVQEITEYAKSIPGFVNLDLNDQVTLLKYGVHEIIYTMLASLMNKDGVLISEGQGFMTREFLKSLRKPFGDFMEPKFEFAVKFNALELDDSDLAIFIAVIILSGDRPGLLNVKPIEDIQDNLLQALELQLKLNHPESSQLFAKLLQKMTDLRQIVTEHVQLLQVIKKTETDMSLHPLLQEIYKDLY

[3] = target: T3, Type-1 angiotensin II receptor (Homo sapiens) (UniProt P30556); assay: Antagonist activity at type-1 angiotensin 2 receptor (unknown origin) at 20 nM by calcium mobilizing assay relative to fimasartan; assay type: functional
T3 sequence (whole entry): T1 sequence (P30556 whole entry)

Rattus norvegicus [4] = assay: Antihypertensive activity in angiotensin 2 induced hypertension rat model assessed as time required for 50% reduction in blood pressure at 3 mg/kg, po; assay type: functional
[5] = AUClast in mouse at 20 mg/kg, po; assay type: ADME, organism-based; parameters: dose 20 mg/kg, route oral, time 0 - last; conditions: in vivo
[6] = Tmax in rat at 10 mg/kg, po; assay type: ADME, organism-based; conditions: in vivo
[7] = Cmax in rat at 10 mg/kg, po; assay type: ADME, organism-based; parameters: dose 10 mg/kg, route oral; conditions: in vivo
[8] = Half life in rat at 10 mg/kg, po; assay type: ADME, organism-based; conditions: in vivo
[9] = AUClast in rat at 10 mg/kg, po; assay type: ADME, organism-based; parameters: dose 10 mg/kg, route oral, time 0 - last; conditions: in vivo
Rattus norvegicus [10] = assay: Antihypertensive activity in angiotensin 2 induced hypertension rat model at 3 mg/kg, po measured until 8 hrs post dose; assay type: functional, organism-based
[11] = Cmax in mouse at 20 mg/kg, po; assay type: ADME, organism-based; parameters: dose 20 mg/kg, route oral; conditions: in vivo

CCCCc1nc(C)c(CC(=S)N2CCCC2)c(=O)n1Cc1ccc(-c2ccccc2-c2noc(=O)[nH]2)cc1
IC50 [1]: 0.7 nM
Activity [2]: 105%

CCCCc1nc(C)c(CC(=S)N2Cc3ccccc3C2)c(=O)n1Cc1ccc(-c2ccccc2-c2noc(=O)[nH]2)cc1
IC50 [1]: 32 nM
Activity [2]: 100%

Cc1nc(C2CC2)n(Cc2ccc(-c3ccccc3-c3noc(=O)[nH]3)cc2)c(=O)c1CC(=S)N(C)C
inhibition [3]: 9.5%

CCCCc1nc(C)c(CC(=S)N(C)C)c(=O)n1Cc1ccc(-c2ccccc2-c2nnn[nH]2)cc1 [FIMASARTAN]
Time (Rattus norvegicus [4]): 22 h
AUC(0-t) [5]: 254 ng·h/mL
IC50 [1]: 4.5 nM
Tmax [6]: 7.8 min
Activity [2]: 0%
Cmax [7]: 518 ng/mL
half-life [8]: 3.6 h
AUC(0-t) [9]: 1930 ng·h/mL
Activity (Rattus norvegicus [10]): Active
Cmax [11]: 145 ng/mL

CCCCc1nc(C)c(CC(=S)N(CC)CC)c(=O)n1Cc1ccc(-c2ccccc2-c2noc(=O)[nH]2)cc1
IC50 [1]: 2 nM
Activity [2]: 61%

CCCCc1nc(C)c(CC(=S)N(C)C)c(=O)n1Cc1ccc(-c2ccccc2C(=O)O)cc1
Activity [2]: 140%
inhibition [3]: 80%

CCCCc1nc(C)c(CC(=S)N2[C@H](C)CC[C@H]2C)c(=O)n1Cc1ccc(-c2ccccc2-c2noc(=O)[nH]2)cc1
IC50 [1]: 1.8 nM
Activity [2]: 100%

CCCCc1nc(C)c(CC(=S)N2CCOCC2)c(=O)n1Cc1ccc(-c2ccccc2-c2noc(=O)[nH]2)cc1
IC50 [1]: 5.6 nM
Activity [2]: 83%

CCCc1nc(C)c(CC(=S)N(C)C)c(=O)n1Cc1ccc(-c2ccccc2-c2noc(=O)[nH]2)cc1
IC50 [1]: 4.7 nM
Activity [2]: 100%

Cc1nc(CC(C)C)n(Cc2ccc(-c3ccccc3-c3noc(=O)[nH]3)cc2)c(=O)c1CC(=S)N(C)C
Activity [2]: 70%
inhibition [3]: 0%
